Results: patent US8232101B2, “Identification of antigenic peptides from multiple myeloma cells” (Janssen Pharmaceutica N.V., priority 2009, dated 2012)

Legend:
[1] = tested on: T2 cells loaded with individual peptides; assay: 51Cr Release Assay for activity of CTL generated with peptide-loaded Drosophila aAPC; assay type: cell-based, human; parameters: key to CTL Activity: Strong (S); Median (M); Weak (W); None (N); conditions: for Ability to induce CTL in normal donors: truncated and computer predicted peptides; for Induction of CTL in two normal donors: Donor 1 and Donor 2, FIG. 3 and FIG. 4; for CTL Activities Median: number of donors that elicited Median activity over total number of donors; for CTL Activities Median / CTL Activities Strong / CTL Activities Weak / CTL Activities None: T2 targets loaded with individual peptide; for CTL Activities Strong: number of donors that elicited Strong activity over total number of donors; for CTL Activities Weak: number of donors that elicited Weak activity over total number of donors; for CTL Activities None: number of donors that elicited no activity over total number of donors
Experimental: Drosophila aAPC were generated from Schneider S2 cells (S2 cells), which were originally established in 1969 from several hundred Oregon-R (wild type) Drosophila melanogaster (Oregon-R) embryos (American Type Culture Collection (ATCC) CRL-1963) according to published procedures (Schneider, J. Embryol. Exp. Morph. 1972 Vol 27, pp. 353-365), and deposited in the ATCC(CRL10974). S2 cells are grown in commercial Schneider's Drosophila medium supplemented with 10% heat-inactivated fetal bovine serum. In order to generate aAPCs, human complementary DNAs (cDNAs) for HLA-A2.1, B7.1, LFA-3, ICAM-1 and CD70, were individually inserted into the pRmHa-3 vector and S2 cells were transfected using the calcium phosphate precipitation method with a mixture of HLA-A2.1, B7.1, LFA-3, ICAM-1 and CD70 plasmid DNAs (for aAPC clone 1120) and the phshneo plasmid. (see U.S. Pat. No. 6,225,042 regarding construction and use of pRMHa plasmid vectors). The human cDNAs were prepared using standard techniques by reverse transcription-PCR using primers derived from the published sequences for HLA-A2.1 from K562 cells, B7.1 from K562 cells, LFA-3 from HL60 cells, ICAM-1 from K562 cells, and CD70 from HLA-A2.1+LCL cells. K562 cells are a human erythroleukemic cell line, HL60 cells are a promyelocytic leukemia human cell line, and HLA-A2.1+LCL cells are an Epstein-Barr virus (EBV)-transformed lymphoblastoid cell line (LCL). Stably transfected cells were selected by culturing in Schneider's medium containing geneticin. Prior to scale up of the cells, expression of the transfected genes is induced by the addition of CuSO4. The level of expression is assessed by flow cytometry using anti-HLA-A2.1, anti-B7.1, anti-LFA-3, anti-ICAM-1 and CD70 antibodies. For efficient in vitro activation of the CD8+ lymphocytes, greater than 30% of the Drosophila cells must express the HLA-A2.1 molecule. The Drosophila cells regularly express each of the molecules at levels between 70-90%. Drosophila aAPC were washed and then incubated at RT for 4 hours with 10 μM of different combinations of mixed peptides or individual peptides (See e.g. U.S. Pat. Nos. 6,225,042, 6,355,479, 6,362,001 and 6,790,662; U.S. Patent Application Publication Nos. 2009/0017000 and 2009/0004142; and International Publication No. WO2007/103009). Purified human CD8+ T cells from HLA-A2 positive donors were then incubated with peptide-loaded Drosophila APC at 37° C., 5% CO2, for 5 days. Human IL-2 (20 U/ml, R&D Systems) and IL-7 (30 U/ml, R&D Systems) were added at day 5 and the activated CD8+ T cells (CTL) were re-stimulated twice, at day 7 and day 15, with non-CD8 adherent cells in a total peripheral blood mononuclear cell (PBMC) preparation from the same donor in the presence of peptides.
A number of different CTL were generated using CD8+ T cells from different donors and different combinations of mixed peptides, including combinations that contained only one peptide. For example, 24 selected peptides were mixed or used individually to create different combinations of peptide mixtures (PM) or individual peptides (P5 and P14) and produce peptide-loaded Drosophila APC. The resulting peptide-loaded Drosophila APC were incubated with CD8+ T cells from 2 different donors (Donor 1 and Donor 2) to produce 11 different batches of CTL (Donor 1: PM1, PM2, PM3, PM4, and P14; Donor 2: PM1, PM2, PM3, PM4, P5, and P14) (Table 3).
CTL (Effector) activity was measured with a standard chromium (^51Cr) release assay, with T2 cells (Target) loaded with individual peptides and also with a number of tumor cell lines as target cells (Brunner et al., Immunology. 1968 February; 14(2):181-96). The highest Effector (E) Target (T) ratio (E/T) was 50:1, with 1:5 serial dilutions of CTL (Effector) used to produce a dose response. Before the assay, Target cells (T2 cells at 3×10^6 cells/100 ul in 1×PBS with 4% FCS) were labeled by adding 100 ul of ^51Cr (Perkin Elmer) and incubating at 37° C. for 1 hour. […]

[2] = target: T1, HLA-A2 molecules in T2 cells (Homo sapiens, UniProt P04439, D140Y/D185E/D98H/E176V/E277Q/G131W/G231S/I119V/I121R/I166T/I218V/L300P/L318F/N151K/N90K/P208A/P217A/Q86G/Q94H/R138H/R169H/T345S); assay: HLA-A2 Stabilization Assay (peptide binding, T2 cells, flow cytometry); parameters: key: Strong (S); Median (M); Weak (W); None (N)
T1 construct: HLA-A2 molecules that are synthesized in a transporter associated with antigen processing (TAP)-deficient cell line, T2; host or cells: T2 cells (TAP-deficient human cell line)
From the text: The assay for peptide binding to class I major histocompatibility complex (MHC/HLA-A2) molecules is based on the ability of peptides to stabilize MHC class I, HLA-A2 molecules that are synthesized in a transporter associated with antigen processing (TAP)-deficient cell line, T2 (ATCC® Number: CRL-1992). The extent of stabilization of MHC class I molecules is directly related to the binding affinity of the added peptides (Townsend et al., Cell. 1990 Jul. 27; 62(2):285-95; Andersen et al., Tissue Antigens. 1999 August; 54(2):185-90).
For the assay, T2 cells were plated in 96-well V-bottom plates, 100 ul/well RPMI media, at a density of 1×10^6 cells/ml, with final peptide concentrations of 200 uM, 20 uM, 2 uM, 200 nM, 20 nM, 2 nM, and no peptide as negative control. The cells with peptides were incubated for 18 hours at 26° C., 5% CO2. After 18 hours, the plates were transferred to 37° C., 5% CO2 and incubated for an additional 3 hours. The cells in plate were washed once with FACS buffer (PBS, 2.5% FCS, 1% NaN3) and then stained by adding 1 ul/well FITC-labeled mouse anti-human HLA-A2 antibody (BD Pharmingen, Cat. No. 551285), 1 ul/well PI, and then incubating at 4° C. for 30 minutes. After staining, cells were resuspended in 200 ul of FACS buffer and transferred from 96-well plates to racks of 96 microtubes. Samples were run on a FACScan flow cytometer and the data were analysed by using CellQuest software.
A peptide of Hepatitis B Core protein (HBC) was used as a positive control. The Hepatitis B Core peptide is a potent HLA-A2.1 epitope and consists of residue numbers 18-27 of the core sequence, amino acids […] (SEQ ID NO:73) (Zhang et al. Immunology. 2007, 121(1):105-12).

[3] = CTL generated with truncated peptides, T2 targets loaded with individual peptides
[4] = truncated versions of P3, P13, P14
[5] = T2 targets loaded with computer predicted peptides

Substance	CTL Activity [1, 3]	Ability to induce CTL in normal donors [1]	HLA-A2 Binding [2, 4]	other results
LIDLPGI (listed as Homo sapiens) [Peptide P14-15]	S	able to induce CTL	W	–
LVLNLLE (listed as Homo sapiens) [Peptide P3-8]	M	able to induce CTL	N	–
TLVDLPGM (listed as Homo sapiens) [Peptide P13-8]	M	–	N	–
IDLPGIT (listed as Homo sapiens) [Peptide P14-16]	W	–	W	–
KLHDAIVEV (listed as Homo sapiens) [Peptide P13-17]	–	able to induce CTL	–	CTL Activity [1, 5]: S; HLA-A2 Binding ([2]; computer predicted peptides): S
KLHDAIVEVV (listed as Homo sapiens) [Peptide P13-16]	–	–	–	CTL Activity [1, 5]: W; HLA-A2 Binding ([2]; computer predicted peptides): M
TLVDLP (listed as Homo sapiens) [Peptide P13-10]	S	–	N	–
SLVLNLLEL (listed as Homo sapiens) [Peptide P3]	M	–	M	Induction of CTL in two normal donors [1]: induced CTL; CTL Activities Median [1]: 1/12; CTL Activities Strong [1]: 5/12; CTL Activities Weak [1]: 4/12; CTL Activities None [1]: 2/12
FQMEQIVYC (listed as Homo sapiens) [Peptide P14-19]	–	able to induce CTL	–	CTL Activity [1, 5]: M; HLA-A2 Binding ([2]; computer predicted peptides): M
LVDLPGM (listed as Homo sapiens) [Peptide P13-13]	W	able to induce CTL	M	–
IDLPGITR (listed as Homo sapiens) [Peptide P14-14]	M	able to induce CTL	W	–
LVYLGHVIYL (listed as Homo sapiens) [Peptide P3-11]	–	able to induce CTL	–	CTL Activity [1, 5]: S; HLA-A2 Binding ([2]; computer predicted peptides): W
TLVDLPGMTKV (listed as Homo sapiens) [Peptide P13]	M	–	M	Induction of CTL in two normal donors [1]: induced CTL; CTL Activities Median [1]: 2/13; CTL Activities Strong [1]: 4/13; CTL Activities Weak [1]: 5/13; CTL Activities None [1]: 2/13
PGITRV (listed as Homo sapiens) [Peptide P14-5]	–	–	N	–
LVDLPGMTKV (listed as Homo sapiens) [Peptide P13-1]	–	–	N	–
LIDLPGITR (listed as Homo sapiens) [Peptide P14-12]	–	–	N	–
DLPGMTKV (listed as Homo sapiens) [Peptide P13-3]	–	–	N	–
FVPEVSFEL (listed as Homo sapiens) [Peptide P13-18]	–	able to induce CTL	–	CTL Activity [1, 5]: M; HLA-A2 Binding ([2]; computer predicted peptides): S
NLLELVHLL (listed as Homo sapiens) [Peptide P3-9]	–	able to induce CTL	–	HLA-A2 Binding ([2]; computer predicted peptides): S
TLIDLPGIT (listed as Homo sapiens) [Peptide P14-7]	–	–	N	–
TLIDLPGITRV (listed as Homo sapiens) [Peptide P14]	M	–	M	Induction of CTL in two normal donors [1]: induced CTL; CTL Activities Median [1]: 1/17; CTL Activities Strong [1]: 14/17; CTL Activities Weak [1]: 1/17; CTL Activities None [1]: 1/17
TLIDLPGITR (listed as Homo sapiens) [Peptide P14-6]	–	–	N	–
